Experimental data published in the supplement of paper PMC10307832.

Experiments:
Test in all cases: relative viability (nuclei count vs DMSO), 5 days (fraction); higher = more cells survive
Zosuquidar + Phenformin = compound: O[C@@H](COc1cccc2ncccc12)CN1CCN([C@@H]2c3ccccc3[C@@H]3[C@H](c4ccccc42)C3(F)F)CC1 [Zosuquidar] + N=C(N)NC(=N)NCCc1ccccc1 [Phenformin] (partner 250 µM)
Summary of the method: (§1)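 Lung cancer cell lines, seeded in 1536-well plates, were treated the following day by pin tool with a single drug or with five library-drug doses (not always all listed) in √10 steps on top of a fixed anchor-drug dose. Cells were fixed and nuclei stained in one step after 5 days, and nuclei were counted. Relative viability is the nuclei count for treated wells divided by that for vehicle wells, reported as medians of duplicate plates.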

[1] = compound: COc1cc2nccc(Oc3ccc(NC(=O)C4(C(=O)Nc5ccc(F)cc5)CC4)cc3)c2cc1OC [Cabozantinib] + C[C@]1(O)C[C@@H](c2nc(-c3ccc4ccc(-c5ccccc5)nc4c3)c3c(N)nccn32)C1 [Linsitinib] (partner 1 µM)
Summary of the method: as §1

Kobe2602 + Vorinostat = compound: C1=CC(=CC=C1NC(=S)NNC2=C(C=C(C=C2[N+](=O)[O-])C(F)(F)F)[N+](=O)[O-])F [Kobe2602] + O=C(CCCCCCC(=O)Nc1ccccc1)NO [Vorinostat] (partner 1 µM)
Summary of the method: as §1

Kobe2602 + Tozasertib = compound: C1=CC(=CC=C1NC(=S)NNC2=C(C=C(C=C2[N+](=O)[O-])C(F)(F)F)[N+](=O)[O-])F [Kobe2602] + Cc1cc(Nc2cc(N3CCN(C)CC3)nc(Sc3ccc(NC(=O)C4CC4)cc3)n2)n[nH]1 [Tozasertib] (partner 0.1 µM)
Summary of the method: as §1

Row | Cell Line | relative viability (Zosuquidar + Phenformin; first compound 0.01 µM) | relative viability (Zosuquidar + Phenformin; first compound 0.03162 µM) | relative viability (Zosuquidar + Phenformin; first compound 0.1 µM) | relative viability (Zosuquidar + Phenformin; first compound 0.3162 µM) | relative viability (Zosuquidar + Phenformin; first compound 1 µM) | relative viability ([1]; first compound 0.02 µM) | relative viability ([1]; first compound 0.06325 µM) | relative viability ([1]; first compound 0.2 µM) | relative viability ([1]; first compound 0.6325 µM) | relative viability ([1]; first compound 2 µM) | relative viability (Kobe2602 + Vorinostat; first compound 0.2 µM) | relative viability (Kobe2602 + Vorinostat; first compound 0.6325 µM) | relative viability (Kobe2602 + Vorinostat; first compound 2 µM) | relative viability (Kobe2602 + Vorinostat; first compound 6.325 µM) | relative viability (Kobe2602 + Vorinostat; first compound 20 µM) | relative viability (Kobe2602 + Tozasertib; first compound 0.2 µM) | relative viability (Kobe2602 + Tozasertib; first compound 0.6325 µM) | relative viability (Kobe2602 + Tozasertib; first compound 2 µM) | relative viability (Kobe2602 + Tozasertib; first compound 6.325 µM) | relative viability (Kobe2602 + Tozasertib; first compound 20 µM)
1 | NCI-H2228 | 0.291 | 0.338 | 0.256 | 0.47 | 0.257 | 0.939 | 1.32 | 0.611 | 0.716 | 0.542 | 0.649 | 0.744 | 0.522 | 0.425 | 0.611 | 0.19 | 0.239 | 0.246 | 0.234 | 0.219
2 | NCI-H2347 | 0.411 | 0.394 | 0.253 | 0.396 | 0.426 | 0.967 | 0.961 | 0.992 | 0.846 | 0.81 | 0.523 | 0.696 | 0.732 | 0.661 | 0.705 | 0.708 | 0.647 | 0.512 | 0.495 | 0.55
3 | NCI-H2405 | 0.406 | 0.348 | 0.344 | 0.46 | 0.388 | – | 1.14 | 0.905 | 0.908 | 0.852 | 1.05 | 1.34 | 0.998 | 1.04 | 1.02 | 0.804 | 0.758 | 0.732 | 0.767 | 0.853
4 | NCI-H3122 | 0.346 | 0.38 | – | 0.377 | 0.319 | 1.01 | 1.03 | 1.08 | 0.949 | 1 | 0.986 | 0.701 | 0.979 | 0.855 | 1.06 | 0.451 | 0.381 | 0.399 | 0.393 | 0.403
5 | PC-3 [JPC-3] | 0.493 | 0.493 | 0.462 | 0.46 | 0.453 | 0.971 | 0.993 | – | 1 | 0.902 | 0.943 | 1.1 | 0.787 | 0.874 | 0.771 | 0.885 | 0.836 | 0.849 | 0.858 | 0.807
6 | PC-14 | 0.502 | 0.533 | 0.447 | 0.645 | 0.47 | 1.09 | 1 | – | 0.961 | 0.927 | 0.637 | 0.788 | 0.739 | 0.75 | 0.413 | 0.606 | 0.562 | 0.596 | 0.602 | 0.559
7 | RERF-LC-KJ | 0.41 | 0.45 | 0.397 | 0.402 | 0.355 | 0.909 | 0.885 | 0.813 | 0.883 | 0.875 | 0.679 | 0.69 | 0.671 | 0.665 | 0.509 | 0.492 | 0.528 | 0.473 | 0.285 | 0.271
8 | SK-LU-1 | 0.547 | 0.522 | 0.531 | 0.632 | 0.557 | – | 1.34 | 1.08 | 1.34 | 0.823 | 0.734 | 0.86 | 0.856 | 0.836 | 0.823 | 0.31 | 0.371 | 0.333 | 0.372 | 0.357
9 | SK-MES-1 | 0.661 | 0.622 | 0.644 | 0.607 | 0.637 | 1.12 | 1.1 | 0.988 | 1.12 | 1.06 | 1.03 | 1.11 | 1.01 | 0.97 | 0.585 | 0.822 | 0.878 | 0.791 | 0.737 | 0.55
10 | SW 1573 | 0.405 | 0.311 | 0.457 | 0.417 | 0.39 | 0.702 | 0.799 | 0.842 | 0.604 | 0.63 | 0.743 | 0.868 | 0.676 | 0.868 | 0.77 | 0.194 | 0.163 | 0.179 | 0.271 | 0.183
